What was measured:
Assay type in all cases: in vivo
metalloproteinase NMP-9 = assay: Gelatin zymography, ApoE knockout mice after second round of angiotensin II; conditions: abdominal aortas, naringenin gavage, FIG. 10D
Procedure: […] Blood vessels were cultured for 24 hours using 0.5 ml serum-free medium with high glucose. After the cultured supernatant protein was quantified, mercaptoethanol-free protein sample loading buffer was added, cryopreserved at −80° C. Water was used to prepare gelatin (Sigma-Aldrich, St. Louis, Mo.) into a concentration of 10 mg/ml, which was added to separation gel of protein electrophoresis according to the proportion of 1:10, causing the final concentration of gelatin as 1 mg/ml. Electrophoresis was performed in a voltage of 80V at 4° C. The gel was put into 0.25% Trixon-100 solution, and washing was performed twice in 30 minutes. And then the gelatin was added to incubation solution (50 mM Tris, 0.2M NaCl, 5 mM CaCl2, 0.02% sodium azide), incubated for 24-48 hours at 37° C. Incubated gel was put into Coomassie brilliant blue to stain for 1-2 hours at room temperature, washed for 30 minutes with a solution having 30% methanol and 10% glacial acetic acid, a solution having 20% methanol and 10% glacial acetic acid, and a solution having 10% methanol and 5% glacial acetic acid, respectively, and then analyzed with Odyssey infrared fluorescence scanning system (LI-COR Biosciences, Lincoln, Nebr.). Both NMP-2 and NMP-9 are gelatinases, and can degrade gelatin; the places where gelatin is degraded are white, and other places are still black. […]

[1] = system: IL-6, MCP-1, IL-10, TNF-α and IFN-γ in plasma; assay: Inflammatory factors in plasma by flow kit, angiotensin II model; conditions: AngII ApoE-/- mice, naringenin gavage, FIG. 7B
Procedure: Eyeballs of mice were removed and blood was drawn, 20 μl of heparin was added into the blood, after centrifuged at 6000 rotations and 4[…] for 10 minutes, the supernatant was aspirated. 10 μl of supernatant was taken, and 10 μl of beads were added, and then 10 μl of PE was added, washed twice with lotion after incubating for 2 hours at room temperature, and then 200 μl of lotion is added. Sorting was performed in the manner of up-flowing after blending (wherein, the flow kits of inflammatory factors of mice were purchased from BD Company).

[2] = system: abdominal aortic aneurysms in angiotensin II induced ApoE-/- mice; assay: Abdominal aortic aneurysm model in ApoE-/- mice induced by angiotensin II submerging pump, naringenin gavage; conditions: AngII ApoE-/- mice
Procedure: Firstly, 16 weeks of male ApoE^−/− mice were randomly divided into two groups, control group (n=16) and naringenin group (n=15), respectively. And then they were anesthetized by 0.1% pentobarbital sodium, and mini pumps (model 2004, Alzet, Cupertino, Calif.) were subcutaneously submerged; angiotensin II (Sigma-Aldrich, St. Louis, Mo.) dissolved with normal saline was added to the pump, such that drugs can be continuously administrated for 4 weeks at a dosage of 1000 ng/kg/min. From the first day after surgery, gavage was daily performed to mice at constant time points, water gavage in control group, and naringenin gavage (50 mg/kg) in naringenin group. Materials were removed 28 days after gavage. Blood pressure of the mice was measured by tail cuff method with BP-89A sphygmomanometer (Beijing Softron Biotechnology Co., Ltd.), and the mice were weighted. Blood was drawn in inner canthus of the mice, and after centrifuged for 10 minutes at 6000 rotations, supernatant was removed and the blood fat levels of the mice were measured. […] Aortas of mice were fixed and separated. AngII group was the control group of angiotensin II submerging pump and water gavage. AngII+NGN group was the group of angiotensin II submerging pump and naringenin gavage. Four blood vessels were randomly selected in each group for photographing. The results were shown in FIG. 5A, the former two blood vessels in AngII group have significant bulges at suprarenal site, exceeding 50% of the diameters of the blood vessels at adjacent site, and arterial aneurysms are formed. […] Next, the statistics of the onset of abdominal aortic aneurysms in all the mice was performed. In the control group of angiotensin II submerging pump and water gavage, only one of 16 mice died from the fracture of aortic dissection within the first 7 days after submerging pump, another one died from the fracture of abdominal aortic aneurysms 1 week after submerging pump, abdominal aortic aneurysms were generated in 6 of the remaining 14 mice at 28th day after submerging pump. Therefore, in control group of angiotensin II submerging pump, aortic aneurysms were formed in 8 of 16 mice, that is, the morbidity of aortic aneurysms was 50%. And in the group of angiotensin II submerging pump and naringenin gavage, 1 of 15 mice died from the fracture of aortic aneurysms, only 1 of the remaining mice suffered from abdominal aortic aneurysms at 28 day after submerging pump. Therefore, in the group of angiotensin II submerging pump and naringenin gavage, only two of 15 mice suffered from aortic aneurysms, that is, the morbidity of aortic aneurysms was 13.3%. […] After removing materials from mice, aortas were perfused with 4% paraformaldehyde and fixed, the suprarenal aorta from diaphragm muscle to renal artery branch on the right side was equally divided into two segments, which were put into liquid nitrogen to freeze for 30 s after embedded with OCT. Serial sections were performed, the thickness of each section was 6 μm, with the spacing of 300 μm, and continuous 16 sections were performed on each mouse. H.E. staining was used to determine the diameters of abdominal aortas of mice, the diameters were measured and the maximum diameter was selected therefrom. The maximum diameter was compared with the diameter of adjacent site, and if the maximum diameter exceeds 50% of diameter of the adjacent site, it can be considered that the mouse suffered from an abdominal aortic aneurysm. […] We used Gomori staining to determine the fracture situation of the elastic lamina of abdominal aortas of mice, and statistics was performed. The results were shown in FIG. 6B, the fracture of the elastic lamina of abdominal aortas of mice decreases after naringenin gavage, and the mice detected in each group are all 6 mice. The data in Figure are an average value ±standard deviation.

metalloproteinase = assay: In situ zymography, angiotensin II model; conditions: AngII ApoE-/- mice; naringenin gavage; FIG. 8A
Procedure: After the aortas of mice were perfused with PBS, fresh tissue was directly embedded with OCT, put in liquid nitrogen for freezing, and then continuously sliced. Firstly, washing was performed with PBS for 3 min, thrice. A fluorescently labeled DQ-gelation-FITC substrate (Sigma-Aldrich, St. Louis, Mo.) was incubated 1 hour at 37° C. Under normal circumstances, fluorescent label for the substrate was packaged, so there is no fluorescence; after activated gelatinase degraded gelatin, green fluorescent label would be exposed. After the section was incubated, washing was performed with PBS for 3 min, thrice, and then the section was sealed. Immunofluorescence confocal microscopy was used to irradiate. The stronger fluorescence was, which means, the stronger activity of matrix metalloproteinase was.

## O=C1C[C@@H](c2ccc(O)cc2)Oc2cc(O)cc(O)c21 [naringenin]
Metalloproteinase NMP-9
  activity of metalloproteinase NMP-9 (gelatin zymography): significantly inhibit
[1]
  IL-10 in plasma: does not change significantly
  TNF-α and IFN-γ in plasma: do not change
[1]; n=11, P<0.05
  levels of IL-6 and MCP-1 in plasma: significantly decrease
[2]; naringenin 50 mg/kg gavage 28 days, 15 mice, control 50%
  morbidity of aortic aneurysms: 13.3%
[2]; naringenin 50 mg/kg gavage 28 days, FIG. 5A
  formation of abdominal aortic aneurysms (vascular photos): reduce the formation of abdominal aortic aneurysms
[2]; naringenin gavage, 11 mice per group, FIG. 6A
  maximum diameter of suprarenal abdominal aortas (H.E. staining): significantly decreases
[2]; naringenin gavage, FIG. 6B
  fracture of the elastic lamina of abdominal aortas (Gomori staining): decreases
[2]; naringenin gavage, of 15 mice
  Dissection (number of mice): 0
  Fracture (number of mice): 1
  Without aneurysm (number of mice): 13
[2]; naringenin gavage, of 15 mice, 28th day
  aneurysm (number of mice): 1
metalloproteinase
  activated metalloproteinase (in situ zymography): significantly decreases

Source: US9669005B2, “Use of naringenin in preparing drugs for preventing and/or treatment abdominal aortic aneurysm” (priority 2013, dated 2017)
